According to US5501850A, “Use of benzimidazole derivatives as light protection filters” (Merck Patent Gesellschaft mit beschrankter Haftung, priority 1992, dated 1996):
In brackets after ≈: the same amount, converted by molar mass. Like-named read-outs stand apart in the source and are kept apart here.

Legend:
[1] = 280-320 nm; cited from earlier work
[2] = cited from earlier work
[3] = UV spectra measured in a UV spectrometer (Perkin-Elmer), path length one centimeter; type: physicochemical; conditions: ethanol, c=1 mg/100 ml
Experimental: The UV spectra were measured in a UV spectrometer from Perkin-Elmer at a path length of one centimeter.

[4] = Solubility; type: physicochemical; conditions: organic solvent or mixture

| SMILES | E at λmax1 [3] | E at λmax2 [3] | λmax1 [3] [nm] | λmax2 [3] [nm] | further results |
| --- | --- | --- | --- | --- | --- |
| O=S(=O)(O)c1ccc2[nH]c(-c3ccccc3)nc2c1 [EUSOLEX® 232] | – | – | – | – | filter quality in the UVB range [1]: good filters |
| Cc1ccc(C=C2C(=O)C3(C)CCC2C3(C)C)cc1 (stereo not shown) [EUSOLEX® 6300] | – | – | – | – | filter quality in the UVB range [1]: good filters |
| CC(C)c1ccc(C(=O)CC(=O)c2ccccc2)cc1 [EUSOLEX® 8020] | – | – | – | – | stability when exposed to UV irradiation [2]: do not have an unlimited stability |
| CCCCC(CC)COc1ccc(OCC(CC)CCCC)c(-c2nc3ccccc3[nH]2)c1 (stereo not shown) [Example 1, 2-2',5'-Di(2-ethylhexyloxy)phenyl!benzimidazole] | 0.34 | 0.30 | 303 | 328 | – |
| CCCCC(CC)COc1c(OC)ccc(-c2nc3ccccc3[nH]2)c1OC (stereo not shown) [Example 2] | 0.51 | 0.45 | 297 | 308 | solubility ([4]; isopropanol, read-out: Solubility in Isopropanol): 640 mg/mL (≈ 1670 mM); solubility ([4]; miglyol, read-out: Solubility in Miglyol): 590 mg/mL (≈ 1540 mM); solubility ([4]; paraffin, read-out: Solubility in Paraffin): 57 mg/mL (≈ 149 mM) |
| COc1ccc(-c2nc3ccccc3[nH]2)c(OC)c1OC [Example 2a, 2-(2',3',4'-Trimethoxy)phenylbenzimidazole] | 0.76 | 0.42 | 309 | 323 | – |
| COc1ccc(C(=O)CC(=O)c2ccc(C(C)(C)C)cc2)cc1 [PARSOL® 1789] | – | – | – | – | stability when exposed to UV irradiation [2]: do not have an unlimited stability |
